Measured values as given in the NIST ThermoML archive (doi:10.1021/je050327l).
Numbers after ± are expanded uncertainties. Blank lines part the entries; values can stand above or below the compound they belong to.

Settings: Liquid, Ebulliometric method (Recirculating still)

vapor or sublimation pressure (373.1 K): 5.529 ± 0.11 kPa
vapor or sublimation pressure (423.15 K): 39.18 ± 0.2 kPa
SMILES: Oc1ccccc1 [phenol]

vapor or sublimation pressure (373.1 K): 3.056 ± 0.084 kPa
vapor or sublimation pressure (423.15 K): 20.97 ± 0.14 kPa
SMILES: CC(C=O)c1ccccc1 (stereo unspecified) [2-phenylpropanal]

vapor or sublimation pressure (253.05 K): 125 ± 1.1 kPa
vapor or sublimation pressure (293.15 K): 508.1 ± 2.2 kPa
SMILES: COC [dimethyl ether]

vapor or sublimation pressure (313.15 K): 3.614 ± 0.093 kPa
vapor or sublimation pressure (353.15 K): 24.18 ± 0.15 kPa
SMILES: COCC(C)O (stereo unspecified) [1-methoxy-2-propanol]

The next lines start with the compound.

SMILES: C=CC [propene]
vapor or sublimation pressure (253.05 K): 307.2 ± 2.2 kPa
vapor or sublimation pressure (293.15 K): 1015.9 ± 4.4 kPa

SMILES: CC[N+](=O)[O-] [nitroethane]
vapor or sublimation pressure (313.15 K): 6.097 ± 0.11 kPa
vapor or sublimation pressure (353.15 K): 33.11 ± 0.18 kPa

SMILES: CCC(=O)O [propanoic acid]
vapor or sublimation pressure (373.1 K): 23.38 ± 0.23 kPa
vapor or sublimation pressure (413.15 K): 96.29 ± 0.45 kPa

SMILES: CCCC(=O)O [butanoic acid]
vapor or sublimation pressure (373.1 K): 9.38 ± 0.13 kPa
vapor or sublimation pressure (413.15 K): 45.85 ± 0.23 kPa
